In this assay the target is Hydroxycarboxylic acid receptor 3 (Homo sapiens) (UniProt P49019). The experiment in a line: Agonist activity at human cloned GPR109b receptor at 100 uM by forskolin-stimulated cAMP production test. Format: functional. A general note: Cyclic AMP is a second messenger, typically raised through Gs and lowered through Gi signalling.

Active and inactive are the calls of the source. The calls are words filed in the database; no cut-off is given here.

Hydroxycarboxylic acid receptor 3 (Homo sapiens), sequence (P49019 whole entry): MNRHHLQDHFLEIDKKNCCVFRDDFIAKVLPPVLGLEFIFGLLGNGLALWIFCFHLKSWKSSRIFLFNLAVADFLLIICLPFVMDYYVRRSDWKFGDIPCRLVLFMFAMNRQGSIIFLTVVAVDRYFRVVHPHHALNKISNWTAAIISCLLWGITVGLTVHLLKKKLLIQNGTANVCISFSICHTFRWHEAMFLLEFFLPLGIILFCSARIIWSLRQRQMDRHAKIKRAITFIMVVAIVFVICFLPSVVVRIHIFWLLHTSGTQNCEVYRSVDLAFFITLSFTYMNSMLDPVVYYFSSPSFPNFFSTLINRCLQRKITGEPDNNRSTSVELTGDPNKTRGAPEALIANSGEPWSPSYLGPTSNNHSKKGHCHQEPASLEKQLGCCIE

On to `Cc1cc(C(=O)O)n[nH]1`, for which the result was inactive.
